Bridge positions count the residues as written; N and C are the ends. Ends that are not written are not given here.
Test system: MUC2-containing intestinal tissue (jejunal)
Test: Ex vivo fluorescent binding to small intestine tissue
Design: species or system porcine
Conditions: MUC2-selective peptides to small intestine; for Overall nanoparticle “score”: scaled between free AF647 (0) and WGA-AF647 (1), mean across trials n = 3; for Selectivity: score for MUC2 tissue / sum of scores for all mucins, n = 3
Text: After identifying the peptide hits for each mucin, we tested their binding in an ex vivo setting (Figure S1), evaluating their interaction with mucin-containing porcine tissue and semiquantitatively representing it through fluorescent imaging (Figure 3a). The cyclic peptides were synthesized and conjugated to a fluorophore, Alexa Fluor 647 (AF647), at the N-terminus to allow fluorescent imaging to be used to semiquantitatively measure the peptides’ ex vivo tissue binding, compared to free AF647 and AF647 conjugated to wheat germ agglutinin (WGA), a known lectin for glycoproteins.[40] […] Porcine GI tissue was used due to its similarity in mucin expression compared to human GI tissue and its capacity to source large surface areas of tissue for experiments.[41],[42] Representative IVIS images are shown in Figure 3b-e, where the first four columns represent the four identified peptides (M2.1–M2.4 in Figure 3b,c, M5.1–M5.4 in Figure 3d,e), the fifth column represents WGA-AF647, and the sixth column represents AF647. The “score” results for the peptide ligands are presented in Figure 3f,g for the mucins of interest, with Tables S2–S5 and Figure S3 detailing results for the other tissues (the equation for calculating the “score” is found in the Materials and Methodssection). […] We also examined selectivity by incubating peptides on nontarget tissues. Figure 3h,i depicts the “selectivity” results for the MUC2-selective and MUC5AC-selective peptides, respectively. Selectivity was calculated by determining the ratio of the “score” for a particular mucin to the sum of the “scores” for all mucins (see the Materials and Methods section for the equation used).
The top-performing hits from phage display were tested on ex vivo segments of porcine mucin-containing tissues (jejunal, stomach, and esophageal tissues) obtained from local abattoirs or laboratory-maintained pigs. Tissue was used either immediately after acquisition or after storage at −80 °C; tissue was used at most 1 week after acquisition and storage at −80 °C. After acquisition and equilibration to room temperature, the tissue was washed twice with 25 mL (each) of cold 1× PBS to remove undigested food and other debris. After washing and cleaning, the tissue was mounted between two magnetic plates with holes corresponding to a 48-well plate, as previously described,[72] such that the luminal side of the tissue was facing up (Figure S1). After the tissue was mounted, the amount of peptide/protein corresponding to 40 μg of AF647 was suspended in 200 μL of 1× PBS and added to the wells created by the magnetic plates. This was done 3× for each formulation to perform the experiment in triplicate. In addition, plain 1× PBS was added to one well to serve as the background measurement. After the peptides were added, the plate setup was covered with aluminum foil and allowed to incubate for 1 h at room temperature with gentle agitation (50 rpm). After incubation, the nonbinding peptides were removed by pouring out the solutions onto a clean paper towel, and the setup was washed three times by adding 200 μL of 1× PBS to each well and gently agitating the setup for 30 s before removing the washing solution. After washing was complete, fluorescence imaging was performed using an IVIS Spectrum fluorescent imaging system (PerkinElmer), with an automatically calculated exposure time (usually ∼1 s), a 20 cm × 20 cm field of view, and an excitation/emission of 640/680 nm, respectively. The imaging results were analyzed using Living Image software to calculate the total fluorescence intensity for each well, and the results for each hit or control were averaged across different wells. The negative control used was unconjugated AF647, while the positive control was WGA-AF647, since WGA is a known lectin that binds glycoproteins.
To better account for tissue-to-tissue variability, the results for each trial were reported as scores rather than using the raw fluorescence intensity. […]

Row | Sequence | Overall nanoparticle “score” | Selectivity
1 | CAKHRIMLC (disulfide 1-9 (inferred)) [Peptide M2.1, CX7C cyclic peptide hit for MUC2; AF647 conjugated at N-terminus in ex vivo tests] | 0.550 | 0.298
2 | CTDKASSSC (disulfide 1-9 (inferred)) [Peptide M2.2, CX7C cyclic peptide hit for MUC2] | 0.243 | 0.396
